Measured values: PubChem BioAssay (NCI)
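The compound was tested at five concentrations on cells cultured in 96-well plates, with a 48-hour exposure period. At the TGI there is no net growth.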

How the values were obtained:
Test in all cases: NCI-60 cell line screen, 48 h
SF-539 CNS = system: SF-539 CNS
ACHN renal = system: ACHN renal
BT-549 breast = system: BT-549 breast
DU-145 prostate = system: DU-145 prostate
OVCAR-5 ovarian = system: OVCAR-5 ovarian
UACC-62 melanoma = system: UACC-62 melanoma
U251 CNS = system: U251 CNS
SK-MEL-5 melanoma = system: SK-MEL-5 melanoma
SF-295 CNS = system: SF-295 CNS
HS 578T breast = system: HS 578T breast
RPMI-8226 leukemia = system: RPMI-8226 leukemia
EKVX NSCLC = system: EKVX NSCLC
PC-3 prostate = system: PC-3 prostate
OVCAR-4 ovarian = system: OVCAR-4 ovarian
COLO 205 colon = system: COLO 205 colon
MALME-3M melanoma = system: MALME-3M melanoma
T-47D breast = system: T-47D breast
RXF 393 renal = system: RXF 393 renal
A549 NSCLC = system: A549 NSCLC
OVCAR-3 ovarian = system: OVCAR-3 ovarian
NCI-H522 lung = system: NCI-H522 lung
NCI-H23 lung = system: NCI-H23 lung
K-562 leukemia = system: K-562 leukemia
NCI/ADR-RES ovarian = system: NCI/ADR-RES ovarian
HOP-62 NSCLC = system: HOP-62 NSCLC
MDA-MB-231 breast = system: MDA-MB-231 breast
MOLT-4 leukemia = system: MOLT-4 leukemia
IGROV1 ovarian = system: IGROV1 ovarian
MDA-N = system: MDA-N
SN12C renal = system: SN12C renal
786-0 renal = system: 786-0 renal
SK-OV-3 ovarian = system: SK-OV-3 ovarian
KM12 colon = system: KM12 colon
HT29 colon = system: HT29 colon
HCT-116 colon = system: HCT-116 colon
M14 melanoma = system: M14 melanoma
CAKI-1 renal = system: CAKI-1 renal
HCT-15 colon = system: HCT-15 colon
SNB-19 CNS = system: SNB-19 CNS
HL-60(TB) leukemia = system: HL-60(TB) leukemia
HOP-92 NSCLC = system: HOP-92 NSCLC
SR leukemia = system: SR leukemia
NCI-H460 lung = system: NCI-H460 lung
SNB-75 CNS = system: SNB-75 CNS
SF-268 CNS = system: SF-268 CNS
MCF7 breast = system: MCF7 breast
CCRF-CEM leukemia = system: CCRF-CEM leukemia
MDA-MB-435 = system: MDA-MB-435
SK-MEL-2 melanoma = system: SK-MEL-2 melanoma
NCI-H226 lung = system: NCI-H226 lung
TK-10 renal = system: TK-10 renal
HCC-2998 colon = system: HCC-2998 colon
OVCAR-8 ovarian = system: OVCAR-8 ovarian
UO-31 renal = system: UO-31 renal
SK-MEL-28 melanoma = system: SK-MEL-28 melanoma

COC(=O)c1c(OC(C)=O)ccc2c1c1c(OC(C)=O)c3ccccc3c(OC(C)=O)c1n2C showed a TGI (SF-539 CNS) of 61.7 µM, a TGI (ACHN renal) of 85 µM and a TGI (BT-549 breast) of 57.1 µM. It also gave a TGI (DU-145 prostate) of over 100 µM, a TGI (OVCAR-5 ovarian) of over 100 µM and a TGI (UACC-62 melanoma) of 49.4 µM. For the same compound, the TGI (U251 CNS) was 90.2 µM, the TGI (SK-MEL-5 melanoma) was 42.1 µM and the TGI (SF-295 CNS) was 70.7 µM. For the same compound, the TGI (HS 578T breast) was 62.5 µM, the TGI (RPMI-8226 leukemia) was 47.4 µM and the TGI (EKVX NSCLC) was 39.2 µM. The TGI (PC-3 prostate) was over 100 µM, the TGI (OVCAR-4 ovarian) was 93.5 µM and the TGI (COLO 205 colon) was over 100 µM. For the same compound, the TGI (MALME-3M melanoma) was 81.2 µM, the TGI (T-47D breast) was 50.5 µM and the TGI (RXF 393 renal) was over 100 µM. The TGI (A549 NSCLC) was over 100 µM, the TGI (OVCAR-3 ovarian) was 44.5 µM and the TGI (NCI-H522 lung) was 28.3 µM. For the same compound, the TGI (NCI-H23 lung) was over 100 µM, the TGI (K-562 leukemia) was 43.2 µM and the TGI (NCI/ADR-RES ovarian) was over 100 µM. It also gave a TGI (HOP-62 NSCLC) of 65.1 µM, a TGI (MDA-MB-231 breast) of over 100 µM and a TGI (MOLT-4 leukemia) of 39.1 µM. For the same compound, the TGI (IGROV1 ovarian) was 35.5 µM, the TGI (MDA-N) was over 100 µM and the TGI (SN12C renal) was over 100 µM. The TGI (786-0 renal) was 94.8 µM, the TGI (SK-OV-3 ovarian) was 52.4 µM and the TGI (KM12 colon) was 51.1 µM. The TGI (HT29 colon) was over 100 µM, the TGI (HCT-116 colon) was 58.9 µM and the TGI (M14 melanoma) was 99.4 µM. For the same compound, the TGI (CAKI-1 renal) was 60 µM, the TGI (HCT-15 colon) was over 100 µM and the TGI (SNB-19 CNS) was over 100 µM. For the same compound, the TGI (HL-60(TB) leukemia) was 48.1 µM, the TGI (HOP-92 NSCLC) was 38.7 µM and the TGI (SR leukemia) was 34.5 µM. For the same compound, the TGI (NCI-H460 lung) was over 100 µM, the TGI (SNB-75 CNS) was 26.4 µM and the TGI (SF-268 CNS) was 77.3 µM. It also gave a TGI (MCF7 breast) of over 100 µM, a TGI (CCRF-CEM leukemia) of 60.5 µM and a TGI (MDA-MB-435) of over 100 µM. For the same compound, the TGI (SK-MEL-2 melanoma) was 36 µM, the TGI (NCI-H226 lung) was over 100 µM and the TGI (TK-10 renal) was 67.8 µM. For the same compound, the TGI (HCC-2998 colon) was 52.1 µM, the TGI (OVCAR-8 ovarian) was 85.2 µM and the TGI (UO-31 renal) was over 100 µM. For the same compound, the TGI (SK-MEL-28 melanoma) was over 100 µM.
